From PMC12040169 (PLOS Biology, 2025)

Assay: in vitro
Settings: human, hela cells, % viability

SMILES | viability at 28.5 h, 10 µM [%] | viability at 28.5 h, 10 µM (bulk resorufin, single well) [%]
Cc1nc2cc(/N=C/c3c[nH]c4ccccc34)ccc2n1C [CBK262085] | 88.8 | –
CC(C)(C)NC(=O)N1CCC2(CC1)OCc1cc(Br)ccc1O2 [CBK060739] | – | 106
Cc1nccn1CC1CCCN(Cc2nc3ccccc3[nH]2)C1 (stereo not shown) [CBK281619] | 83.3 | –
COc1cc2[nH]c(=O)c(C(=O)NCCc3ccc(Cl)cc3)c(O)c2cc1OC [CBK159986] | 91.3 | –
Cc1ccc2nsnc2c1NC(=O)COc1ccccc1[N+](=O)[O-] [CBK263779] | 92.7 | –
CCc1cc(-c2[nH]nc(C)c2Oc2ccc(C(C)C)cc2)c(O)cc1O [CBK264940] | 90.7 | –
Cc1[nH]c(=O)[nH]c(=S)c1C(=O)Nc1ccc2[nH]c(C(F)(F)F)nc2c1 [CBK115494] | 95.2 | –
O=C(NCc1cccc(C(F)(F)F)c1)N1CCCC(CO)C1 (stereo not shown) [CBK156033] | 89.5 | –
O=c1c2ccccc2nc2n1CCN(Cc1ccccc1)CC2 [CBK284790] | 90.2 | –
CCN(c1ccccc1C(=O)O)S(=O)(=O)/C=C/c1ccccc1 [CBK287236] | 96.7 | –
COc1cccc2cc(C(=O)NCCc3ccc(O)cc3)oc12 [CBK149802] | 93.9 | –
COc1ccc(CNC(=O)C2CC(=O)N(c3ccc(O)cc3)C2)cc1 (stereo not shown) [CBK270125] | 96.8 | –
O=C(c1c(F)cccc1F)N1C2CCC1c1snnc1C2 (stereo not shown) [CBK284990] | 91.5 | –
NC(=O)CN1CCC[C@@H]2NC(=O)COc3ccccc3C(=O)N[C@@H]3CCOC[C@@H]3C/C=C/C[C@@H]21 [CBK292041] | 103 | –
Cc1oc(CSCc2cc(C(=O)O)c(C)o2)cc1C(=O)O [CBK264291] | 90.7 | –
O=C(Nc1ccc([C@@H](O)[C@H]2COCC(=O)N2Cc2ccc(F)cc2)cc1)c1ccccc1 [CBK289061] | 86.1 | –
COc1ccc(CNC(=O)N2CCCCC2CO)cc1OC (stereo not shown) [CBK155981] | 92.8 | –
O=C(NCc1ccc(OC2CCNCC2)cc1)c1ccccn1 [CBK036361T] | 93.1 | –
CC1CCN(Cc2ccc(-c3nnn(CC(=O)NCc4ccc(S(C)(=O)=O)cc4)n3)cc2)CC1 [CBK144152C] | 94.3 | –
COc1ccc(C(=O)Nc2ccccc2C(=O)Nc2cccc([N+](=O)[O-])c2)cc1 [CBK265894] | 101 | –
Clc1ccc(COc2ccnc(N3CCCN(CC4CC4)CC3)n2)cc1Cl [CBK083963] | 81.3 | –
Cc1ccc(NC(=O)c2ccc3nccnc3c2)c(C)n1 [CBK200219] | 93.6 | –

SMILES | viability at 28.5 h, 10 µM [%] | viability at 28.5 h, 10 µM (bulk resorufin, single well) [%]
COCOc1ccc(-c2nccnc2OCCN2C(=O)c3ccccc3C2=O)cc1 [CBK106913] | 111 | –
COc1ccc(C2CCCC(N(CCN(C)C)C(=O)Nc3ccc(F)c(F)c3)C2)cc1OC (stereo not shown) [CBK059339C] | 84.8 | –
CCC(c1ccc(F)cc1)N(C)C(=O)Cn1cccc(C(=O)Nc2ccc(F)cc2)c1=O (stereo not shown) [CBK286061] | 88.7 | –
C=CCNC(=O)C1(Cc2ccccc2-c2ccncc2)CCOCC1 [CBK284784] | 102 | –
O=C(O)CC1c2ccccc2Oc2ccccc21 [CBK261836] | 92 | –
O=C1CC(c2ccccc2)CC(=O)C1=CNCc1ccccn1 (stereo not shown) [CBK262521] | 105 | –
COCCNC(=O)c1ccc(-c2ccccc2)nc1NCC1CC1 [CBK106242] | 92 | –
Cc1cccc(C)c1NC(=O)CC(CN1CCN(Cc2c(C)noc2C)CC1)C(=O)O (stereo not shown) [CBK286715] | 89.8 | –
COCOc1ccc(-c2nccnc2OCCc2cccs2)cc1 [CBK106911] | 106 | –
CC(C)(C)CC(=O)N[C@H]1C[C@H]2C(=O)Nc3ccccc3C(=O)N2C1 [CBK289352] | 96.2 | –
COc1ccc(Br)cc1C(=O)Nc1cc(-c2nc3ccccc3[nH]2)ccc1Cl [CBK264112] | 93.6 | –
Cc1nn(CCNC(=O)C2CC(=O)N(Cc3ccccn3)C2)c(C)c1Cl (stereo not shown) [CBK307316] | 85.1 | –
O=C(OCc1ccccc1F)c1cccc(-c2nnc(-c3ccccc3)o2)c1 [CBK267798] | 84.6 | –
Cc1nn(C)cc1-c1cncn1C(CCN(C)C)c1ccccc1 (stereo not shown) [CBK281987] | 92.3 | –
CCCC(=O)NC[C@H]1CC[C@H](c2ccnc3cc(C)nn32)CC1 [CBK283474] | 102 | –
Cc1cc(C)c2c(OCC(=O)N(C)CC(=O)NC(C)C)nn(C)c2n1 [CBK304931] | 84.1 | –
CC1SC2(C(=O)Nc3ccccc32)N(c2ccc(Oc3ccccc3)cc2)C1=O (stereo not shown) [CBK103750] | 92.5 | –
CC(=O)c1cccc(NC(=O)/C(=C\c2cccnc2)NC(=O)c2ccc(C)cc2)c1 [CBK262456] | 88.6 | –
Nc1ccc2c(-c3cc(F)cc(F)c3)ccnc2n1 [CBK067638] | 93.4 | –
Cc1nc2n(n1)CCN(C(=O)Cc1c(C)[nH]c3ccc(F)cc13)C2 [CBK284355] | 83.1 | –
O=C(c1ccc(F)cc1)[C@H]1CCCN(C(=O)c2cc[nH]n2)C1 [CBK284331] | 87.3 | –
O=C(C1CCCCC1)N1CC[C@H](c2nnc(-c3cccnc3)o2)C1 [CBK289412] | 103 | –

SMILES | viability at 28.5 h, 10 µM [%] | viability at 28.5 h, 10 µM (bulk resorufin, single well) [%]
CCOC(=O)N1CCN(S(=O)(=O)c2ccc3[nH]c(=O)oc3c2)CC1 [CBK304679] | 105 | –
Cc1ccc(-c2cc(C(=O)NC3CN4CCC3CC4)[nH]n2)o1 (stereo not shown) [CBK283276] | 104 | –
CC(=O)c1c(C(C)=O)c(C)n(-c2ccc(C(=O)O)cc2)c1C [CBK287036] | 90.9 | –
CCCCN(C)c1nccnc1-c1ccc(CO)cc1 [CBK037666] | 92.3 | –
Clc1ccc(COc2cncc(OC3CCN(CC4CC4)C3)n2)cc1Cl (stereo not shown) [CBK084443] | 86.5 | –
CCOc1ccc(N2C(=O)CC(N3CCN(c4ccc(C(=O)c5ccncc5)cc4)CC3)C2=O)cc1 (stereo not shown) [CBK269124] | 86.5 | –
CCc1nccn1CC(=O)N(C)C1CCCN(Cc2ccccc2F)C1 (stereo not shown) [CBK306928] | 102 | –
Cc1ccc(CCC(=O)Nc2ccc(S(N)(=O)=O)cc2)o1 [CBK269031] | 99.9 | –
O=C(O)c1ccc(CNC(=S)Nc2ccc([N+](=O)[O-])cc2)cc1 [CBK267037] | 92.9 | –
O=C(Cn1nnc2ccccc21)c1ccc2c(c1)CCN2S(=O)(=O)c1ccccc1 [CBK286464] | 101 | –
O=C(Nc1nc(-c2cccs2)cs1)c1ccc(F)cc1 [CBK287327] | 86.7 | –
CCc1nn(C)cc1CN1CCOC(c2nc(C(C)(C)C)cs2)C1 (stereo not shown) [CBK304513] | 104 | –
COc1cccc(C(=O)Nc2ccc(-c3noc(-c4ccccn4)n3)cc2)c1 [CBK270055] | 110 | –
Cc1ccn2c(=O)c(C(=O)NCc3cccnc3N3CCOCC3)cnc2c1 [CBK298316] | 86.1 | –
FC(F)(F)c1cccc(CN2CCC(N3CCCCC3)CC2)c1 [CBK261855] | 90.1 | –
Cc1nc(Nc2ccc(Cl)cc2)nc(N2CCN(C)CC2)n1 [CBK023855] | 95.4 | –
CC(=O)c1cccc(-c2nc(CC3CCN(C)CC3)nn2CCO)c1 [CBK306645] | 98.3 | –
O=C(/C=C/c1ccc2c(c1)OCO2)N1CCCC2(CCN(C(=O)c3ccoc3)C2)C1 (stereo not shown) [CBK131622] | 92.3 | –
O=C(O)Cn1c2ccccc2c2nc3ccccc3nc21 [CBK263649] | 81.1 | –
CN1CCC2(CCC1=O)CC(NC(=O)C1CC1)c1ccccc1O2 (stereo not shown) [CBK284455] | 93.3 | –
O=C1NC2(CCN(C(=O)C3CCCC3)CC2)Nc2ccccc21 [CBK283962] | 94.9 | –
COC(=O)C1C2CCN(CC2)C1SCc1cccc(C(F)(F)F)c1 (stereo not shown) [CBK010829C] | 87.1 | –

SMILES | viability at 28.5 h, 10 µM [%] | viability at 28.5 h, 10 µM (bulk resorufin, single well) [%]
COc1ccc(CNC(=O)c2sc3ncnc(N(C)C4CCCCC4)c3c2C)cc1 [CBK294431] | 78.9 | –
CCOc1cc(CNCc2ccccn2)cc(Cl)c1OCC [CBK268516C] | 106 | –
Cc1cc(C)n(-c2ccc3nnc(CCC(=O)O)n3n2)n1 [CBK307616] | 97 | –
COc1cc2c3c(cccc3c1)CC(C)(N(C)C)C2 (stereo not shown) [CBK024357C] | 105 | –
COc1n[nH]c(CO)c1Cc1c(Cl)cccc1Cl [CBK092283T] | 97.3 | –
Cc1ccc(Cn2nc(C(=O)NCCc3c[nH]c4ccccc34)c3ccccc32)cc1 [CBK047830] | – | 98.7
O=C1NCCCc2nc(Nc3ccccc3)sc21 [CBK087091] | 83.8 | –
c1ccc(-c2nnc(COc3ccc(-c4cnc5ccccc5n4)cc3)o2)cc1 [CBK269707] | 90.4 | –
O=C(O)C(CCO)Sc1nnc(Nc2ccc(Oc3ccccc3)cc2)s1 (stereo not shown) [CBK296631] | 85.7 | –
CCc1nn2c(=O)cc(CN3C(=O)NC(C)(c4ccco4)C3=O)nc2s1 (stereo not shown) [CBK305880] | 114 | –
CC(NC(=O)c1ncoc1-c1ccccc1F)c1ccccn1 (stereo not shown) [CBK282402] | 91.4 | –
O=C(c1cccc(C(F)(F)F)c1)N1CCCC2(CCN(Cc3ccccc3)C2)C1 (stereo not shown) [CBK137039] | 90.4 | –
CC(C)Oc1ccccc1-c1nnc(SCC(=O)O)[nH]1 [CBK262702] | 81.7 | –
CCOc1ccc(-n2c(SCc3nc(-c4ccccc4C)no3)nnc2-c2ccccc2)cc1 [CBK268910] | 109 | –
N#Cc1ccc(Oc2cccc(C(F)(F)F)c2)c(F)c1 [CBK002801] | 88.3 | –
COc1ccccc1Cc1cccc(C2CCCN2C(=O)CCc2ccc(F)cc2)n1 (stereo not shown) [CBK286238] | 101 | –
COc1ccc(-c2nnc(SCC(=O)NC(=O)c3ccccc3)n2CC(C)C)cc1 [CBK297527] | 101 | –
COCCn1c(SCC(=O)N2CCNC2=O)nc2ccccc21 [CBK305851] | 97.3 | –
CCn1c(SCC(=O)Nc2ccc(Br)cc2F)nnc1-c1ccc(OC)cc1 [CBK266172] | 100 | –
CC(C)N1CCC(=NNC(=O)C(O)c2ccccc2)CC1 (stereo not shown) [CBK019361] | 110 | –
CC1(CC(=O)Nc2ccccc2)NC(=S)N(c2ccccc2)N1 (stereo not shown) [CBK265534] | 105 | –
CC(NC(=O)c1cccc(-n2cnnc2)c1)c1ccc2c(c1)CCC2 (stereo not shown) [CBK282707] | 91.9 | –
